Source: patent EP4190319A1, “PHARMACEUTICAL COMPOSITION COMPRISING MEMANTINE AND CITICOLINE” (Novamedica Limited Liability Company, priority 2020, dated 2022)

Tested on: rats
Experiment: Morris Water Maze test of long-term memory in the model of global transient cerebral ischemia with ligation of common carotid arteries
Format: in vivo
Protocol: The comparative study of specific pharmacological activity of the pharmaceutical composition proposed in this invention was conducted by comparison with the citicoline mono-preparation on the model of ischemic stroke in rats. For that purpose, a model of global transient cerebral ischemia with ligation of common carotid arteries was selected on the basis of the Handbook on Conducting Pre-Clinical Studies of Therapeutical Agents, ed. by A.N. Mironov. Long-term memory was evaluated with the use of the Morris Water Maze test (Morris R., "J Neurosci Methods", 1984, Vol. 11, No 1. - P. 47-60 [10]). Table. Effect of the preparations under study on long-term memory in rats in the Morris Water Maze test.

Row | Structure (SMILES) | Latent period of finding platform (mg/kg (citicoline + memantine) 100+0, ischemic stroke model in rats) [s] | Latent period of finding platform (mg/kg (citicoline + memantine) 500+0, ischemic stroke model in rats) [s] | Latent period of finding platform (mg/kg (citicoline + memantine) 1,000+0, ischemic stroke model in rats) [s] | Latent period of finding platform (mg/kg (citicoline + memantine) 0+2, ischemic stroke model in rats) [s] | Latent period of finding platform (mg/kg (citicoline + memantine) 0+10, ischemic stroke model in rats) [s] | Latent period of finding platform (mg/kg (citicoline + memantine) 0+20, ischemic stroke model in rats) [s]
1 | C[N+](C)(C)CCOP(=O)(O)OP(=O)([O-])OC[C@H]1O[C@@H](n2ccc(N)nc2=O)[C@H](O)[C@@H]1O [Citicoline, 5'-O-[hydroxy({hydroxy[2-(trimethylammonio)ethoxy]phosphoryl}oxy)phosphoryl]cytidine] | 20.4 ± 7.6 | 13.6 ± 3.5 | 10.4 ± 3.5 |  |  | 
2 | CC12CC3CC(C)(C1)CC(N)(C3)C2 [Memantine, 3,5-dimethyladamantan-1-amine] |  |  |  | 27.1 ± 7.8 | 14.6 ± 5.2 | 9.2 ± 1.2
